Measured values reported in patent US12275722B2, “Process of reworking a crystalline form of a glycine transport inhibitor” (Boehringer Ingelheim International GmbH, priority 2020, dated 2025).
Values belong to the molecule of their own block, whether it stands above or below them.

Tests used:
[1] = Bulk density of the dried/homogenized Compound batches; type: physicochemical; conditions: reworked (dried, homogenized) drug substance batch
[2] = Water sorption (dynamic vapor sorption), water-uptake; type: physicochemical; conditions: 25° C., 90% relative humidity for 6 hours under humid nitrogen purge
Protocol: Water sorption isotherms can be determined using a dynamic vapor sorption system (Advantage, DVS, London, UK). The samples are subjected to 0 to 90% relative humidity (RH) stepwise with a step size of 10% at 25° C. Each sample is equilibrated at each RH step for at least 60 min, and equilibrium is assumed if weight increase is less than 0.1% within one minute, and the maximum duration on each RH is 6 hours. Therefore, each sample is held at a given RH for 1 to 6 hours depending on how fast the equilibrium is reached.

Structure (SMILES): C[C@@H](Oc1ccc(S(C)(=O)=O)cc1C(=O)N1C[C@@H]2C[C@]2(c2cc(C(F)(F)F)on2)C1)C(F)(F)F [Batch 18106]
Bulk density ([1]; listed as 18106): 0.15 g/mL

Structure (SMILES): C[C@@H](Oc1ccc(S(C)(=O)=O)cc1C(=O)N1C[C@@H]2C[C@]2(c2cc(C(F)(F)F)on2)C1)C(F)(F)F [Batch 18105]
Bulk density ([1]; listed as 18105): 0.12 g/mL

Structure (SMILES): C[C@@H](Oc1ccc(S(C)(=O)=O)cc1C(=O)N1C[C@@H]2C[C@]2(c2cc(C(F)(F)F)on2)C1)C(F)(F)F [Batch 1099101]
Bulk density ([1]; listed as 9101): 0.14 g/mL

Structure (SMILES): C[C@@H](Oc1ccc(S(C)(=O)=O)cc1C(=O)N1C[C@@H]2C[C@]2(c2cc(C(F)(F)F)on2)C1)C(F)(F)F [Batch 17103]
Bulk density ([1]; listed as 17103): 0.50 g/mL

Structure (SMILES): C[C@@H](Oc1ccc(S(C)(=O)=O)cc1C(=O)N1C[C@@H]2C[C@]2(c2cc(C(F)(F)F)on2)C1)C(F)(F)F [Batch 5]
Bulk density ([1]; listed as 5): 0.14 g/mL

Structure (SMILES): C[C@@H](Oc1ccc(S(C)(=O)=O)cc1C(=O)N1C[C@@H]2C[C@]2(c2cc(C(F)(F)F)on2)C1)C(F)(F)F [Batch 17102]
Bulk density ([1]; listed as 17102): 0.35 g/mL

Structure (SMILES): C[C@@H](Oc1ccc(S(C)(=O)=O)cc1C(=O)N1C[C@@H]2C[C@]2(c2cc(C(F)(F)F)on2)C1)C(F)(F)F [Batch 18107]
Bulk density ([1]; listed as 18107): 0.14 g/mL

Structure (SMILES): C[C@@H](Oc1ccc(S(C)(=O)=O)cc1C(=O)N1C[C@@H]2C[C@]2(c2cc(C(F)(F)F)on2)C1)C(F)(F)F [Batch 1099100]
Bulk density ([1]; listed as 9100): 0.15 g/mL

Structure (SMILES): C[C@@H](Oc1ccc(S(C)(=O)=O)cc1C(=O)N1C[C@@H]2C[C@]2(c2cc(C(F)(F)F)on2)C1)C(F)(F)F [Batch 1099104]
Bulk density ([1]; listed as 9104): 0.15 g/mL

Structure (SMILES): C[C@@H](Oc1ccc(S(C)(=O)=O)cc1C(=O)N1C[C@@H]2C[C@]2(c2cc(C(F)(F)F)on2)C1)C(F)(F)F [Batch 1098942]
Bulk density ([1]; listed as 8942): 0.16 g/mL

Structure (SMILES): C[C@@H](Oc1ccc(S(C)(=O)=O)cc1C(=O)N1C[C@@H]2C[C@]2(c2cc(C(F)(F)F)on2)C1)C(F)(F)F [Batch 1099102]
Bulk density ([1]; listed as 9102): 0.15 g/mL

Structure (SMILES): C[C@@H](Oc1ccc(S(C)(=O)=O)cc1C(=O)N1C[C@@H]2C[C@]2(c2cc(C(F)(F)F)on2)C1)C(F)(F)F [amorphous form, [5-(methylsulfonyl)-2-{[(2R)-1,1,1-trifluoropropan-2-yl]oxy}phenyl]{(1R,5R)-1-[5-(trifluoromethyl)-1,2-oxazol-3-yl]-3-azabicyclo[3.1.0]hex-3-yl}methanone]
Water-uptake [2]: 1.4%

Structure (SMILES): C[C@@H](Oc1ccc(S(C)(=O)=O)cc1C(=O)N1C[C@@H]2C[C@]2(c2cc(C(F)(F)F)on2)C1)C(F)(F)F [Batch 1099103]
Bulk density ([1]; listed as 9103): 0.15 g/mL

Structure (SMILES): C[C@@H](Oc1ccc(S(C)(=O)=O)cc1C(=O)N1C[C@@H]2C[C@]2(c2cc(C(F)(F)F)on2)C1)C(F)(F)F [Batch 1098943]
Bulk density ([1]; listed as 8943): 0.14 g/mL

Structure (SMILES): C[C@@H](Oc1ccc(S(C)(=O)=O)cc1C(=O)N1C[C@@H]2C[C@]2(c2cc(C(F)(F)F)on2)C1)C(F)(F)F [Batch 6]
Bulk density ([1]; listed as 6): 0.15 g/mL

Structure (SMILES): C[C@@H](Oc1ccc(S(C)(=O)=O)cc1C(=O)N1C[C@@H]2C[C@]2(c2cc(C(F)(F)F)on2)C1)C(F)(F)F [polymorph II, [5-(methylsulfonyl)-2-{[(2R)-1,1,1-trifluoropropan-2-yl]oxy}phenyl]{(1R,5R)-1-[5-(trifluoromethyl)-1,2-oxazol-3-yl]-3-azabicyclo[3.1.0]hex-3-yl}methanone]
Water-uptake [2]: about 0.04%

Structure (SMILES): C[C@@H](Oc1ccc(S(C)(=O)=O)cc1C(=O)N1C[C@@H]2C[C@]2(c2cc(C(F)(F)F)on2)C1)C(F)(F)F [Batch 1098955]
Bulk density ([1]; listed as 8955): 0.15 g/mL

Structure (SMILES): C[C@@H](Oc1ccc(S(C)(=O)=O)cc1C(=O)N1C[C@@H]2C[C@]2(c2cc(C(F)(F)F)on2)C1)C(F)(F)F [Batch 1098954]
Bulk density ([1]; listed as 8954): 0.15 g/mL

Structure (SMILES): C[C@@H](Oc1ccc(S(C)(=O)=O)cc1C(=O)N1C[C@@H]2C[C@]2(c2cc(C(F)(F)F)on2)C1)C(F)(F)F [Batch 17104]
Bulk density ([1]; listed as 17104): 0.23 g/mL

Results, then the molecule that gave them:

Bulk density ([1]; listed as 4TA): 0.22 g/mL
Structure (SMILES): C[C@@H](Oc1ccc(S(C)(=O)=O)cc1C(=O)N1C[C@@H]2C[C@]2(c2cc(C(F)(F)F)on2)C1)C(F)(F)F [Batch 4TA]

Bulk density ([1]; listed as 1TB): 0.16 g/mL
Structure (SMILES): C[C@@H](Oc1ccc(S(C)(=O)=O)cc1C(=O)N1C[C@@H]2C[C@]2(c2cc(C(F)(F)F)on2)C1)C(F)(F)F [Batch 1TB]

Bulk density ([1]; listed as 1TA): 0.17 g/mL
Structure (SMILES): C[C@@H](Oc1ccc(S(C)(=O)=O)cc1C(=O)N1C[C@@H]2C[C@]2(c2cc(C(F)(F)F)on2)C1)C(F)(F)F [Batch 1TA]

Bulk density ([1]; listed as 3TA): 0.18 g/mL
Structure (SMILES): C[C@@H](Oc1ccc(S(C)(=O)=O)cc1C(=O)N1C[C@@H]2C[C@]2(c2cc(C(F)(F)F)on2)C1)C(F)(F)F [Batch 3TA]

Bulk density ([1]; listed as 3TB): 0.17 g/mL
Structure (SMILES): C[C@@H](Oc1ccc(S(C)(=O)=O)cc1C(=O)N1C[C@@H]2C[C@]2(c2cc(C(F)(F)F)on2)C1)C(F)(F)F [Batch 3TB]

Bulk density ([1]; listed as 2TB): 0.2 g/mL
Structure (SMILES): C[C@@H](Oc1ccc(S(C)(=O)=O)cc1C(=O)N1C[C@@H]2C[C@]2(c2cc(C(F)(F)F)on2)C1)C(F)(F)F [Batch 2TB]

Bulk density ([1]; listed as 2TA): 0.17 g/mL
Structure (SMILES): C[C@@H](Oc1ccc(S(C)(=O)=O)cc1C(=O)N1C[C@@H]2C[C@]2(c2cc(C(F)(F)F)on2)C1)C(F)(F)F [Batch 2TA]

Bulk density ([1]; listed as 4TB): 0.17 g/mL
Structure (SMILES): C[C@@H](Oc1ccc(S(C)(=O)=O)cc1C(=O)N1C[C@@H]2C[C@]2(c2cc(C(F)(F)F)on2)C1)C(F)(F)F [Batch 4TB]
